Laboratory results as given in PubChem BioAssay AID504875 (The Scripps Research Institute Molecular Screening Center, 2011).
Calls of active or inactive are those of the source. No rule for the calls is given here.

System: cell viability, ATP luminescence (cytotoxicity counter-screen)
Assay: cell viability after agonist treatment – luminescence, dose response, set 2, assay provider, cytotoxicity control for S1P4 agonist project, late-stage follow-up (AID 504875)

In the case of `COCCN=C1S/C(=C\c2cc(C)n(-c3ccc(F)cc3F)c2C)C(=O)N1C`, the CC50 is reported as > 10 µM (inactive).
